Reference: patent US7960402B2, “Carbamoyl-substituted spiro derivative” (Banyu Pharmaceutical Co., Ltd., priority 2004, dated 2011)

Molecular target: T1, human histamine H3 receptor (Homo sapiens, UniProt Q9Y5N1)
T1 construct: expressed in transfected cells; host or cells: HEK293 and CHO-K1
Assay: Test for Inhibition of Bonding of Histamine Analog
Assay type: binding
Conditions: for IC50: membrane specimen from histamine H3 receptor-expressed cells, [3H]N-α-methylhistamine, 25° C., 2 hours, read-out: 50% inhibition concentration (IC50 value) of the test compound to a specific N-alpha-methylhistamine bond; for inhibition of the bond of N-alpha-methylhistamine (histamine analog) to a histamine H3 receptor: summary in words of the IC50 results
Text: A cDNA sequence coding for human histamine H3 receptor [refer to WO 00/39164] was cloned to an expression vector pCR2.1, pEF1× (manufactured by Invitrogen) and pCI-neo (manufactured by Promega). The resulting expression vector was transfected to host cells HEK293 and CHO-K1 (American Type Culture Collection) by a cationic lipid method [refer to Proceedings of the National Academy of Sciences, the United States of America, volume 84, page 7413 (1987)] to give histamine H3 receptor-expressed cells.
A membrane specimen prepared from the cells where histamine H3 receptor was expressed was incubated at 25° C. for 2 hours in an assay buffer (50 mM Tris buffer, pH 7.4) together with a test compound (the compound of Example 1) and 20,000 cpm of [3H]N-α-methylhistamine (manufactured by NEN) and then filtered using a glass filter GF/C. After washing with a 50 mM Tris buffer of pH 7.4, radiation activity on the glass filter was determined. Non-specific bond was measured in the presence of a 10 μM thioperamide (manufactured by Sigam) to determine a 50% inhibition concentration (IC50 value) of the test compound to a specific N-alpha-methylhistamine bond [refer to Molecular Pharmacology, volume 55, page 1101 (1999)].

T1 sequence (Q9Y5N1 whole entry): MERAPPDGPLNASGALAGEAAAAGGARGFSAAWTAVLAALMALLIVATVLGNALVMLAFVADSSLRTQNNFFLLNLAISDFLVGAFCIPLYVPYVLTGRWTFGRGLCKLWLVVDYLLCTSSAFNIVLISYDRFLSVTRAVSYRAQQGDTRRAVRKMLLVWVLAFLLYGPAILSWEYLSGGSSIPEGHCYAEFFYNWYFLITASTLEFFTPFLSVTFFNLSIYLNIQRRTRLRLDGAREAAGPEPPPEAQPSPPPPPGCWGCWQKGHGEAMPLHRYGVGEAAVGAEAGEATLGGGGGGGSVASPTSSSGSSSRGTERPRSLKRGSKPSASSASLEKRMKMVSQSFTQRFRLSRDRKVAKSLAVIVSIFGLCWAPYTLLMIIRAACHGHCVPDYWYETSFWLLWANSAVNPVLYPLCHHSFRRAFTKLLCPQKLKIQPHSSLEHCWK

Question: Which results are given for `CN(CCN1CCCCC1)C(=O)[C@H]1CC[C@@]2(CC1)OC(=O)c1cc(F)ccc12.Cl` [Example 10, trans-5′-fluoro-3′-oxo-N-methyl-N-(2-piperidin-1-ylethyl)-spiro[cyclohexane-1,1′-(3′H)-isobenzofuran]-4-carboxamide hydrochloride]?
Answer: IC50: 4 nM; inhibition of the bond of N-alpha-methylhistamine (histamine analog) to a histamine H3 receptor: strongly inhibited

Question: For `CN(CCN1CCCCC1)C(=O)[C@H]1CC[C@@]2(CC1)OC(=O)c1cc(-c3ccccn3)ccc12` [Example 58, trans-5′-(Pyridin-2-yl)-3′-oxo-N-methyl-N-(2-piperidin-1-ylethyl)-spiro[cyclohexane-1,1′-(3′H)-isobenzofuran]-4-carboxamide], which IC50 is on record?
Answer: 0.08 nM

Question: And the “inhibition of the bond of N-alpha-methylhistamine (histamine analog) to a histamine H3 receptor” value?
Answer: strongly inhibited

Question: How did the IC50 turn out when `CN(CCN1CCCCC1)C(=O)[C@H]1CC[C@@]2(CC1)OC(=O)c1cc(Oc3ccccn3)ccc12` [Example 68, trans-5′-(Pyridin-2-yloxy)-3′-oxo-N-methyl-N-(2-piperidin-1-ylethyl)-spiro[cyclohexane-1,1′-(3′H)-iso-benzofuran]-4-carboxamide] was run?
Answer: 0.67 nM

Question: What about the “inhibition of the bond of N-alpha-methylhistamine (histamine analog) to a histamine H3 receptor” value of the same compound?
Answer: strongly inhibited
